Measured values as given in PubChem BioAssay (NCI).
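Tested at 5 concentrations; 48 h exposure; 96-well plates; endpoints linearly interpolated, else capped at highest concentration. The concentration for 50% growth inhibition is given as GI50. The concentration for full growth arrest is given as TGI.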

Tests used:
Experiment in all cases: NCI-60 cell line screen, 48 h
CCRF-CEM leukemia = system: CCRF-CEM leukemia
MDA-MB-231 breast = system: MDA-MB-231 breast
K-562 leukemia = system: K-562 leukemia
MCF7 breast = system: MCF7 breast
CAKI-1 renal = system: CAKI-1 renal
MALME-3M melanoma = system: MALME-3M melanoma
SF-268 CNS = system: SF-268 CNS
OVCAR-5 ovarian = system: OVCAR-5 ovarian
RPMI-8226 leukemia = system: RPMI-8226 leukemia
A498 renal = system: A498 renal
OVCAR-4 ovarian = system: OVCAR-4 ovarian
SK-MEL-5 melanoma = system: SK-MEL-5 melanoma
SK-MEL-28 melanoma = system: SK-MEL-28 melanoma
MOLT-4 leukemia = system: MOLT-4 leukemia
NCI-H23 lung = system: NCI-H23 lung
HCT-15 colon = system: HCT-15 colon
SK-MEL-2 melanoma = system: SK-MEL-2 melanoma
RXF 393 renal = system: RXF 393 renal
KM12 colon = system: KM12 colon
SN12C renal = system: SN12C renal
SW-620 colon = system: SW-620 colon
UACC-62 melanoma = system: UACC-62 melanoma
DU-145 prostate = system: DU-145 prostate
SNB-19 CNS = system: SNB-19 CNS
PC-3 prostate = system: PC-3 prostate
OVCAR-8 ovarian = system: OVCAR-8 ovarian
A549 NSCLC = system: A549 NSCLC
HCT-116 colon = system: HCT-116 colon
HL-60(TB) leukemia = system: HL-60(TB) leukemia
COLO 205 colon = system: COLO 205 colon
IGROV1 ovarian = system: IGROV1 ovarian
SK-OV-3 ovarian = system: SK-OV-3 ovarian
EKVX NSCLC = system: EKVX NSCLC
UACC-257 melanoma = system: UACC-257 melanoma
SF-295 CNS = system: SF-295 CNS
786-0 renal = system: 786-0 renal
ACHN renal = system: ACHN renal
M14 melanoma = system: M14 melanoma
HCC-2998 colon = system: HCC-2998 colon
HOP-92 NSCLC = system: HOP-92 NSCLC
SF-539 CNS = system: SF-539 CNS
NCI-H522 lung = system: NCI-H522 lung
HS 578T breast = system: HS 578T breast
MDA-MB-435 = system: MDA-MB-435
HOP-62 NSCLC = system: HOP-62 NSCLC
NCI/ADR-RES ovarian = system: NCI/ADR-RES ovarian
NCI-H460 lung = system: NCI-H460 lung
T-47D breast = system: T-47D breast
UO-31 renal = system: UO-31 renal
HT29 colon = system: HT29 colon
U251 CNS = system: U251 CNS
SNB-75 CNS = system: SNB-75 CNS
TK-10 renal = system: TK-10 renal
OVCAR-3 ovarian = system: OVCAR-3 ovarian
BT-549 breast = system: BT-549 breast
NCI-H226 lung = system: NCI-H226 lung

SMILES: CCCCCCCC/C=C/CCCCCCCC1=NCC[N+]1(CCO)CCO
- GI50 (CCRF-CEM leukemia): 1.6 µM
- TGI (CCRF-CEM leukemia): 4.46 µM
- GI50 (MDA-MB-231 breast): 2.47 µM
- TGI (MDA-MB-231 breast): 8.81 µM
- GI50 (K-562 leukemia): 1.52 µM
- TGI (K-562 leukemia): 4.34 µM
- GI50 (MCF7 breast): 3.94 µM
- TGI (MCF7 breast): 18.6 µM
- GI50 (CAKI-1 renal): 2.41 µM
- TGI (CAKI-1 renal): 8.32 µM
- GI50 (MALME-3M melanoma): 3.19 µM
- TGI (MALME-3M melanoma): 12.4 µM
- GI50 (SF-268 CNS): 3.25 µM
- TGI (SF-268 CNS): 13 µM
- GI50 (OVCAR-5 ovarian): 4.98 µM
- TGI (OVCAR-5 ovarian): 18.9 µM
- GI50 (RPMI-8226 leukemia): 2.71 µM
- TGI (RPMI-8226 leukemia): 10.8 µM
- GI50 (A498 renal): 2.21 µM
- TGI (A498 renal): 14.2 µM
- GI50 (OVCAR-4 ovarian): 3.87 µM
- TGI (OVCAR-4 ovarian): 14.9 µM
- GI50 (SK-MEL-5 melanoma): 2.24 µM
- TGI (SK-MEL-5 melanoma): 5.68 µM
- GI50 (SK-MEL-28 melanoma): 9.71 µM
- TGI (SK-MEL-28 melanoma): 21.6 µM
- GI50 (MOLT-4 leukemia): 2.23 µM
- TGI (MOLT-4 leukemia): 6.58 µM
- GI50 (NCI-H23 lung): 3.05 µM
- TGI (NCI-H23 lung): 16 µM
- GI50 (HCT-15 colon): 3.16 µM
- TGI (HCT-15 colon): 11 µM
- GI50 (SK-MEL-2 melanoma): 2.69 µM
- TGI (SK-MEL-2 melanoma): 6.01 µM
- GI50 (RXF 393 renal): 1.73 µM
- TGI (RXF 393 renal): 4.2 µM
- GI50 (KM12 colon): 1.87 µM
- TGI (KM12 colon): 3.61 µM
- GI50 (SN12C renal): 3.2 µM
- TGI (SN12C renal): 12.6 µM
- GI50 (SW-620 colon): 1.82 µM
- TGI (SW-620 colon): 4.38 µM
- GI50 (UACC-62 melanoma): 5 µM
- TGI (UACC-62 melanoma): 21.4 µM
- GI50 (DU-145 prostate): 4.41 µM
- TGI (DU-145 prostate): 16.2 µM
- GI50 (SNB-19 CNS): 4.49 µM
- TGI (SNB-19 CNS): 25.2 µM
- GI50 (PC-3 prostate): 1.97 µM
- TGI (PC-3 prostate): 6.17 µM
- GI50 (OVCAR-8 ovarian): 2.66 µM
- TGI (OVCAR-8 ovarian): 10 µM
- GI50 (A549 NSCLC): 2.77 µM
- TGI (A549 NSCLC): 10.9 µM
- GI50 (HCT-116 colon): 2.81 µM
- TGI (HCT-116 colon): 8.78 µM
- GI50 (HL-60(TB) leukemia): 1.75 µM
- TGI (HL-60(TB) leukemia): 4.68 µM
- GI50 (COLO 205 colon): 1.98 µM
- TGI (COLO 205 colon): 4.91 µM
- GI50 (IGROV1 ovarian): 1.59 µM
- TGI (IGROV1 ovarian): 3.35 µM
- GI50 (SK-OV-3 ovarian): 10.1 µM
- TGI (SK-OV-3 ovarian): 24.4 µM
- GI50 (EKVX NSCLC): 4.71 µM
- TGI (EKVX NSCLC): 26.4 µM
- GI50 (UACC-257 melanoma): 2.25 µM
- TGI (UACC-257 melanoma): 8.42 µM
- GI50 (SF-295 CNS): 1.75 µM
- TGI (SF-295 CNS): 4.07 µM
- GI50 (786-0 renal): 4.8 µM
- TGI (786-0 renal): 22.1 µM
- GI50 (ACHN renal): 6.11 µM
- TGI (ACHN renal): 20.8 µM
- GI50 (M14 melanoma): 2.26 µM
- TGI (M14 melanoma): 5.77 µM
- GI50 (HCC-2998 colon): 3.67 µM
- TGI (HCC-2998 colon): 20.3 µM
- GI50 (HOP-92 NSCLC): 1.62 µM
- TGI (HOP-92 NSCLC): 5.53 µM
- GI50 (SF-539 CNS): 3.7 µM
- TGI (SF-539 CNS): 13.1 µM
- GI50 (NCI-H522 lung): 1.61 µM
- TGI (NCI-H522 lung): 4.46 µM
- GI50 (HS 578T breast): 2.16 µM
- TGI (HS 578T breast): 7.66 µM
- GI50 (MDA-MB-435): 2.35 µM
- TGI (MDA-MB-435): 7.95 µM
- GI50 (HOP-62 NSCLC): 6.36 µM
- TGI (HOP-62 NSCLC): 19.8 µM
- GI50 (NCI/ADR-RES ovarian): 11.8 µM
- TGI (NCI/ADR-RES ovarian): 37.7 µM
- GI50 (NCI-H460 lung): 1.69 µM
- TGI (NCI-H460 lung): 3.39 µM
- GI50 (T-47D breast): 7.08 µM
- TGI (T-47D breast): 22.7 µM
- GI50 (UO-31 renal): 3.97 µM
- TGI (UO-31 renal): 19.7 µM
- GI50 (HT29 colon): 1.38 µM
- TGI (HT29 colon): 3.25 µM
- GI50 (U251 CNS): 1.42 µM
- TGI (U251 CNS): 2.86 µM
- GI50 (SNB-75 CNS): 2.39 µM
- TGI (SNB-75 CNS): 9.52 µM
- GI50 (TK-10 renal): 1.94 µM
- TGI (TK-10 renal): 4.39 µM
- GI50 (OVCAR-3 ovarian): 1.94 µM
- TGI (OVCAR-3 ovarian): 4.42 µM
- GI50 (BT-549 breast): 3.17 µM
- TGI (BT-549 breast): 10.8 µM
- GI50 (NCI-H226 lung): 4.16 µM
- TGI (NCI-H226 lung): 19.8 µM
